Common to all, as to assay type: in vitro ADME
A short description of series [1]: Stability of peptides in human plasma. To be noted: human, plasma; for metabolised at 24 h, 2 μM: pH 7.8. The protocol: (§1) b) Stability of Peptides in Human Plasma, Simulated Gastric Fluid, Intestinal Fluid and Liver Microsomes (Ex-Vivo): Different short-chain peptides (final concentration 2 μM) were incubated with either pooled human plasma (7.5 μL) or simulated gastric fluid (pH 1.5; composition HCl, NaCl and Pepsin) or simulated intestinal fluid (pH 7.5) or human liver microsomes, for 0, 2, 4, 6, 12 and 24 h (37° C.; 50 mM triethanolamine-HCl buffer; pH 7.8). Concentrations of human plasma/simulated gastric fluid/simulated intestinal fluid/human liver microsomes were selected in preliminary experiments to provide degradation of approximately 50% of PTH(1-34) within 1 h, therefore allowing time-dependent degradation to be viewed over 24 h. Reactions were terminated by the addition of TFA/H2O ([…], 10% (v/v)). The reaction products were then applied to a Vydac C18 analytical column (4.6×250-mm) and the major degradation fragment separated from intact short-chain peptides. The column was equilibrated with TFA/H20, at a flow rate of 1 mL/min. Using 0.1% (v/v) TFA in 70% acetonitrile/H2O, the concentration of acetonitrile in the eluting solvent was raised from 0% to 28% over 10 min and from 28% to 42% over 30 min. The absorbance was monitored at 206 nm using UV detector and peaks were collected manually prior to ESI-MS analysis. Area under the curve was measured for test peptides and their metabolites and percentage degradation were calculated at each time point over a period of 24 h. Stability study results of selected peptides, in human plasma, simulated gastric fluid, intestinal fluid and liver microsomes (in vitro) are listed in Table 4.

The nature of series [2]: Stability of peptides in simulated gastric fluid (pH 1.5; HCl, NaCl and Pepsin). To be noted: pH 1.5; for % degradation of peptides in 24 h when incubated with simulated gastric fluid: 2 μM; for half-life / half-life (t1/2) in simulated gastric fluid: simulated gi fluid. The protocol: as §1
The nature of series [3]: Stability of peptides in simulated intestinal fluid (pH 7.5). To be noted: pH 7.5; for half-life / half-life (t1/2) in simulated intestinal fluid: simulated gi fluid; for % degradation of peptides in 24 h when incubated with simulated intestinal fluid: 2 μM. The protocol: as §1
Series [4] can be described thus: Stability of peptides in human liver microsomes. Conditions: human, microsomes; for % degradation of peptides in 24 h when incubated with liver microsomes: 2 μM, pH 7.8. The protocol: as §1
(Microsomes from liver hold many membrane-bound enzymes, among them those of drug oxidation.)

Where a SMILES comes first, the peptide text is derived from it. [ ]: non-standard residue; d: D form. ξ: configuration not given here. ξBip(2'-Et-4'-OMe) = CCc1cc(OC)ccc1-c1ccc(CC(N)C(=O)O)cc1; Arg(NO2) = N=C(NCCC[C@H](N)C(=O)O)N[N+](=O)[O-]; αMePhe(2,6-F2) = C[C@](N)(Cc1c(F)cccc1F)C(=O)O; ξαMePhe(2,6-F2) = CC(N)(Cc1c(F)cccc1F)C(=O)O; αMePhe(2-F) = C[C@](N)(Cc1ccccc1F)C(=O)O; ξαMe(hhPhe) = CC(N)(CCCc1ccccc1)C(=O)O; ξαMePhe(2-F) = CC(N)(Cc1ccccc1F)C(=O)O; ξαMeW = CC(N)(Cc1c[nH]c2ccccc12)C(=O)O; hhPhe = N[C@@H](CCCc1ccccc1)C(=O)O; hArg = N=C(N)NCCCC[C@H](N)C(=O)O; hCit = NC(=O)NCCCC[C@H](N)C(=O)O; NMeV = CN[C@H](C(=O)O)C(C)C; ξαMeNle = CCCCC(C)(N)C(=O)O; ξαMeM = CSCCC(C)(N)C(=O)O; Nle = CCCC[C@H](N)C(=O)O; Ac5c = NC1(C(=O)O)CCCC1; Aib = CC(C)(N)C(=O)O

In series [1], `CCCC[C@H](NC(=O)[C@H](CC(C)C)NC(=O)[C@H](CCC(N)=O)NC(=O)[C@@H](NC(=O)[C@H](CCC(=O)O)NC(=O)C(C)(C)NC(=O)[C@@H](NC(=O)C(C)(C)N)C(C)C)[C@@H](C)CC)C(=O)N[C@@H](Cc1c[nH]cn1)C(=O)N[C@@H](CCC(N)=O)C(=O)N[C@@H](CCCCNC(N)=O)C(=O)NC(C)(C)C(=O)NC(C)(C)C(=O)NC(Cc1ccc(-c2ccc(OC)cc2CC)cc1)C(=O)N[C@@H](CCCc1ccccc1)C(N)=O` (stereo partly shown) [Seq. ID. 790] (H-[Aib]V[Aib]EIQL[Nle]HQ[hCit][Aib][Aib][ξBip(2'-Et-4'-OMe)][hhPhe]-NH2) yielded a half-life greater than 24 h and a metabolised at 24 h, 2 μM of 0%. Also, in series [2], the “% degradation of peptides in 24 h when incubated with simulated gastric fluid” value (“% degradation … with simulated gastric fluid” below) is listed as 43% and the half-life was 4 h. Moreover, in series [3], the half-life was greater than 24 h and the “% degradation of peptides in 24 h when incubated with simulated intestinal fluid” value (“% degradation … with simulated intestinal fluid” below) is listed as 00%. Besides, in series [4], the half-life worked out at 2 h and the “% degradation of peptides in 24 h when incubated with liver microsomes” value (shortened to “% degradation … with liver microsomes”) is 84%.

Turning to `CCCC[C@H](NC(=O)[C@](C)(Cc1c(F)cccc1F)NC(=O)[C@H](CCC(N)=O)NC(=O)[C@@H](NC(=O)[C@H](CCC(=O)O)NC(=O)C(C)(C)NC(=O)[C@@H](NC(=O)C1(N)CCCC1)C(C)C)[C@@H](C)CC)C(=O)N[C@@H](Cc1c[nH]cn1)C(=O)N[C@@H](CCC(N)=O)C(=O)N[C@@H](CCCCNC(=N)N)C(=O)NC(C)(C)C(=O)N[C@@H](CCCCN)C(=O)N[C@@](C)(Cc1ccccc1F)C(N)=O` [Seq. ID. 85] (H-[Ac5c]V[Aib]EIQ[αMePhe(2,6-F2)][Nle]HQ[hArg][Aib]K[αMePhe(2-F)]-NH2), in series [1], the “half-life (t1/2) in human plasma” value is reported as “(9) h” and the metabolised at 24 h, 2 μM worked out at 77%. For the same compound, in series [2], the “% degradation … with simulated gastric fluid” value is 100% and the half-life was 0.5 h. Also, in series [3], the half-life was 0.5 h and the “% degradation … with simulated intestinal fluid” value is 100%. Also, in series [4], the half-life was found to be 0.5 h and the “% degradation … with liver microsomes” value is recorded as 100%.

On to `CCCCC(C)(NC(=O)[C@H](CC(C)C)NC(=O)[C@H](CCC(N)=O)NC(=O)[C@@H](NC(=O)[C@H](CCC(=O)O)NC(=O)C(C)(C)NC(=O)[C@@H](NC(=O)C(C)(C)N)C(C)C)[C@@H](C)CC)C(=O)N[C@@H](Cc1c[nH]cn1)C(=O)N[C@@H](CCC(N)=O)C(=O)N[C@@H](CCCCNC(=N)N)C(=O)N[C@@H](C)C(=O)N[C@@H](CCCCNC(=N)N)C(=O)NC(C)(Cc1c[nH]c2ccccc12)C(=O)NC(C)(CCCc1ccccc1)C(N)=O` (stereo partly shown) [Seq. ID. 949] (H-[Aib]V[Aib]EIQL[ξαMeNle]HQ[hArg]A[hArg][ξαMeW][ξαMe(hhPhe)]-NH2), for which, in series [1], the “half-life (t1/2) in human plasma” value is recorded as “(9) h” and the metabolised at 24 h, 2 μM amounted to 70%. For the same compound, in series [2], the “% degradation … with simulated gastric fluid” value is recorded as 100% and the half-life was 0.5 h. In addition, in series [3], the half-life is 0.5 h and the “% degradation … with simulated intestinal fluid” value is given as 100%. In addition, in series [4], the half-life turned out to be 0.5 h and the “% degradation … with liver microsomes” value was 100%.

In series [1], `CCCC[C@H](NC(=O)C(C)(Cc1ccccc1F)NC(=O)[C@H](CCC(N)=O)NC(=O)[C@@H](NC(=O)[C@H](CCC(=O)O)NC(=O)C(C)(C)NC(=O)[C@@H](NC(=O)C1(N)CCCC1)C(C)C)[C@@H](C)CC)C(=O)N[C@@H](Cc1c[nH]cn1)C(=O)N[C@@H](CCC(N)=O)C(=O)N[C@@H](CCCCNC(N)=O)C(=O)NC(C)(C)C(=O)N[C@@H](CCCNC(=N)N[N+](=O)[O-])C(=O)NC(C)(Cc1ccccc1F)C(N)=O` (stereo partly shown) [Seq. ID. 460] (H-[Ac5c]V[Aib]EIQ[ξαMePhe(2-F)][Nle]HQ[hCit][Aib][Arg(NO2)][ξαMePhe(2-F)]-NH2) displayed a half-life of 8 h and a metabolised at 24 h, 2 μM of 71%. Also, in series [2], the “% degradation … with simulated gastric fluid” value was 14% and the “half-life (t1/2) in simulated gastric fluid” value is listed as “(8) h”. Moreover, in series [3], the “half-life (t1/2) in simulated intestinal fluid” value is “(6) h” and the “% degradation … with simulated intestinal fluid” value is listed as 40%. Moreover, in series [4], the half-life is 1 h and the “% degradation … with liver microsomes” value is 78%.

In series [1], `CC[C@H](C)[C@H](NC(=O)[C@H](CCC(=O)O)NC(=O)C(C)(C)NC(=O)[C@@H](NC(=O)C1(NC(=O)[C@@H](N)C(C)C)CCCC1)C(C)C)C(=O)N[C@@H](CCC(N)=O)C(=O)N[C@@H](CC(C)C)C(=O)NC(C)(CCSC)C(=O)N[C@@H](Cc1c[nH]cn1)C(=O)N[C@@H](CCC(N)=O)C(=O)N[C@@H](CCCCNC(=N)N)C(=O)N[C@@H](C)C(=O)N[C@@H](CCCCNC(=N)N)C(=O)NC(C)(Cc1ccccc1F)C(=O)NC(C)(CCCc1ccccc1)C(N)=O` (stereo partly shown) [Seq. ID. 936] (H-V[Ac5c]V[Aib]EIQL[ξαMeM]HQ[hArg]A[hArg][ξαMePhe(2-F)][ξαMe(hhPhe)]-NH2) came in with a half-life greater than 24 h and a metabolised at 24 h, 2 μM of 0%. In addition, in series [2], the “% degradation … with simulated gastric fluid” value is listed as 52% and the half-life was 4 h. In series [3], the half-life is greater than 24 h and the “% degradation … with simulated intestinal fluid” value was 00%. Besides, in series [4], the half-life came to 2 h and the “% degradation … with liver microsomes” value stood at 81%.

In series [1], `CC[C@H](C)[C@H](NC(=O)[C@H](CCC(=O)O)NC(=O)C(C)(C)NC(=O)[C@@H](NC(=O)C1(NC(=O)[C@@H](NC)C(C)C)CCCC1)C(C)C)C(=O)N[C@@H](CCC(N)=O)C(=O)N[C@@H](CC(C)C)C(=O)NC(C)(CCSC)C(=O)N[C@@H](Cc1c[nH]cn1)C(=O)N[C@@H](CCC(N)=O)C(=O)N[C@@H](CCCCNC(=N)N)C(=O)N[C@@H](C)C(=O)N[C@@H](CCCCNC(=N)N)C(=O)NC(C)(Cc1ccccc1F)C(=O)NC(C)(CCCc1ccccc1)C(N)=O` (stereo partly shown) [Seq. ID. 940] (H-[NMeV][Ac5c]V[Aib]EIQL[ξαMeM]HQ[hArg]A[hArg][ξαMePhe(2-F)][ξαMe(hhPhe)]-NH2) displayed a half-life greater than 24 h and a metabolised at 24 h, 2 μM of 0%. In series [2], the “% degradation … with simulated gastric fluid” value is reported as 00% and the half-life was greater than 24 h. Moreover, in series [3], the half-life is greater than 24 h and the “% degradation … with simulated intestinal fluid” value was 00%. Besides, in series [4], the “half-life (t1/2) in liver microsomes” value is “(5) h” and the “% degradation … with liver microsomes” value stood at 32%.

For the compound `CCCC[C@H](NC(=O)C(C)(Cc1c(F)cccc1F)NC(=O)[C@H](CCC(N)=O)NC(=O)[C@@H](NC(=O)[C@H](CCC(=O)O)NC(=O)C(C)(C)NC(=O)[C@@H](NC(=O)C1(N)CCCC1)C(C)C)[C@@H](C)CC)C(=O)N[C@@H](Cc1c[nH]cn1)C(=O)N[C@@H](CCC(N)=O)C(=O)N[C@@H](CCCCNC(N)=O)C(=O)NC(C)(C)C(=O)NC(C)(C)C(=O)NC(C)(Cc1c(F)cccc1F)C(N)=O` (stereo partly shown) [Seq. ID. 440] (H-[Ac5c]V[Aib]EIQ[ξαMePhe(2,6-F2)][Nle]HQ[hCit][Aib][Aib][ξαMePhe(2,6-F2)]-NH2), in series [1], the half-life is greater than 24 h and the metabolised at 24 h, 2 μM was 0%. In series [2], the “% degradation … with simulated gastric fluid” value is 43% and the half-life was 4 h. Also, in series [3], the half-life is greater than 24 h and the “% degradation … with simulated intestinal fluid” value is 00%. For the same compound, in series [4], the half-life turned out to be 2 h and the “% degradation … with liver microsomes” value worked out at 84%.

In series [1], `CCCC[C@H](NC(=O)C(C)(Cc1c(F)cccc1F)NC(=O)[C@H](CCC(N)=O)NC(=O)[C@@H](NC(=O)[C@H](CCC(=O)O)NC(=O)C(C)(C)NC(=O)[C@@H](NC(=O)C1(N)CCCC1)C(C)C)[C@@H](C)CC)C(=O)N[C@@H](Cc1c[nH]cn1)C(=O)N[C@@H](CCC(N)=O)C(=O)N[C@@H](CCCCNC(=N)N)C(=O)NC(C)(C)C(=O)N[C@@H](CCCNC(=N)N[N+](=O)[O-])C(=O)NC(C)(Cc1ccccc1F)C(N)=O` (stereo partly shown) [Seq. ID. 260] (H-[Ac5c]V[Aib]EIQ[ξαMePhe(2,6-F2)][Nle]HQ[hArg][Aib][Arg(NO2)][ξαMePhe(2-F)]-NH2) registered a half-life of 8 h and a metabolised at 24 h, 2 μM of 70%. For the same compound, in series [2], the “% degradation … with simulated gastric fluid” value is 15% and the “half-life (t1/2) in simulated gastric fluid” value is listed as “(8) h”. Also, in series [3], the “half-life (t1/2) in simulated intestinal fluid” value is on record as “(6) h” and the “% degradation … with simulated intestinal fluid” value is recorded as 41%. Also, in series [4], the half-life was found to be 1 h and the “% degradation … with liver microsomes” value came to 77%.

In general, half-life refers to how long it takes for the measured level to halve.

The record behind these values is US8383581B2, “Short-chain peptides as parathyroid hormone (PTH) receptor agonist” (Cadila Healthcare Limited, priority 2009, dated 2013).
